In patent US20170007610A1, “NOVEL HETEROBICYCLIC COMPOUNDS AS KAPPA OPIOID AGONISTS” (priority 2014, published 2017):

Legend:
ICR mice [1] = assay: Acetic acid-induced writhing model; assay type: in vivo; details: Mus musculus, 0.25 h, acetic acid induced pain model, oral or i.v. administration, writhes for 15 min, read-out: In-vivo ED50
Description: (§1) All the animal experiments were carried out in ICR mice, bred in-house. Animals were housed in groups of 6 animals per cage, for a week, in order to habituate them to vivarium conditions (25±4° C., 60-65% relative humidity, 12:12 h light: dark cycle, with lights on at 7.30 am). All the animal experiments were carried out according to the internationally valid guidelines following approval by the ‘Zydus Research Center animal ethical committee’.
Following oral or i.v. administration of test compounds, mice are rested for 5 min before i.p. injection with 10 ml/kg of 0.6% v/v acetic acid in normal saline. […] A writhe is defined as a constriction of the abdominal area, often with extension of the hind legs. Percentage maximum possible effect (MPE) was calculated as below:
% MPE=100−[(No. of writhes in treated mice/No. of writhes in vehicle treated mice)]×100
ED50 dose is determined using GraphPad Prism.

kappa opioid receptor [2] = target: T1, kappa opioid receptor (Homo sapiens, UniProt P41145); assay: Invitro KOR agonistic activity, cAMP based functional assay; assay type: cell-based
T1 construct: grown in complete Ham's F-12 medium

ICR mice [3] = assay: Assessment of CNS effects (spontaneous locomotion, sedation, catalepsy), threshold dose; assay type: in vivo; details: lowest dose which shows pharmacodynamic effect (locomotion, sedation, catalepsy), oral or i.v.
Description: as §1
Assessment of CNS Effects of Test Compounds
Test compounds were dissolved in normal saline injected by oral or i.v., routes in ICR mice tail vein. […] The dose is scaled down or up if pharmacodynamic effect is present or absent respectively.

kappa opioid receptor [4] = target: T2, kappa opioid receptor (Mus musculus, UniProt P33534); assay: Ex-vivo KOR agonistic activity, electrically stimulated mouse vas deferens (MVD) model
T2 construct: from tissue; host or cells: mouse vas deferens (male Swiss Albino mice)
T2 sequence (P33534 whole entry): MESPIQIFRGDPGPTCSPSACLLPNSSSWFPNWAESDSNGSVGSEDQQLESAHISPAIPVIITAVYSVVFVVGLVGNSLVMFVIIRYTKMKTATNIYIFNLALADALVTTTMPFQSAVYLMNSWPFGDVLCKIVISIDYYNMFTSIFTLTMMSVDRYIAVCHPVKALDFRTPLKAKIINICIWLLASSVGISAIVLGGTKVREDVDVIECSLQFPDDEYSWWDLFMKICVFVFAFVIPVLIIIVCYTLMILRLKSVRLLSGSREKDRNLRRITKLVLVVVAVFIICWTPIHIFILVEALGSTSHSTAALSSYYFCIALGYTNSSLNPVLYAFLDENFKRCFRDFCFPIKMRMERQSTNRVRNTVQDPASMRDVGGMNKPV

T1 sequence (P41145 whole entry): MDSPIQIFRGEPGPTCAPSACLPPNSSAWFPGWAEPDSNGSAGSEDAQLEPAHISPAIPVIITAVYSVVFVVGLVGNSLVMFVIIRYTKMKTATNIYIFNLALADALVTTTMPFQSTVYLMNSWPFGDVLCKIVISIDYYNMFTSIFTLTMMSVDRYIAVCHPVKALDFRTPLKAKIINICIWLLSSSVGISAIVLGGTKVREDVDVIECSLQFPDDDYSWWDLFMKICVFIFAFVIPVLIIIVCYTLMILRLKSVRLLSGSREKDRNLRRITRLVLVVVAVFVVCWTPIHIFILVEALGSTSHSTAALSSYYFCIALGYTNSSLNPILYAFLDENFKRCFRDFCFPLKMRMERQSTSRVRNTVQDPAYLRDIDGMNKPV

| SMILES | ED50 (ICR mice [1]) | EC50 (kappa opioid receptor [2]) | CNS TD (ICR mice [3]) | IC50 (kappa opioid receptor [4]) |
| --- | --- | --- | --- | --- |
| CN(C(=O)COc1ccc(NS(C)(=O)=O)c2ncccc12)[C@H](CN1CC[C@H](O)C1)c1cccc(O)c1 [Compound 48, N-((S)-1-(3-hydroxyphenyl)-2-((S)-3-hydroxypyrrolidin-1-yl)ethyl)-N-methyl-2-((8-(methylsulfonamido)quinolin-5-yl)oxy) acetamide] | 3.1 mg/kg | 0.021 nM | 30 mg/kg | 1.3 nM |
| CN1CCCc2c(OCC(=O)N(C)[C@H](CN3CC[C@H](O)C3)c3ccccc3)ccc(NS(C)(=O)=O)c21 [Compound 22, N-((S)-2-((S)-3-hydroxypyrrolidin-1-yl)-1-phenylethyl)-N-methyl-2-((1-methyl-8-(methylsulfonamido)-1,2,3,4-tetrahydroquinolin-5-yl)oxy)acetamide] | 2.5 mg/kg | 0.008 nM | 60 mg/kg | 8.1 nM |
| CN(C(=O)COc1ccc(NS(C)(=O)=O)c2ncccc12)[C@H](CN1CC[C@H](O)C1)c1cccc(NS(C)(=O)=O)c1 [Compound 44] | 2.3 mg/kg | 0.036 nM | 10 mg/kg | 5.4 nM |
| CN(C(=O)COc1ccc(NS(C)(=O)=O)c2c1CCCN2)[C@H](CN1CC[C@H](O)C1)c1ccccc1 [Compound 15, N-((S)-2-((S)-3-hydroxypyrrolidin-1-yl)-1-phenylethyl)-N-methyl-2-((8-(methylsulfonamido)-1,2,3,4-tetrahydroquinolin-5-yl)oxy)acetamide] | 0.92 mg/kg | 0.003 nM | 10 mg/kg | 0.9 nM |
| CN(C(=O)COc1ccc(NS(C)(=O)=O)c2cccnc12)[C@H](CN1CC[C@H](O)C1)c1ccccc1 [Compound 6, N-((S)-2-((S)-3-hydroxypyrrolidin-1-yl)-1-phenylethyl)-N-methyl-2-((5-methylsulfonamido)quinolin-8-yloxy)acetamide] | 1.1 mg/kg | 0.94 nM | 30 mg/kg | 349 nM |
| CN(C(=O)COc1ccc2c(c1)CCCN2S(C)(=O)=O)[C@H](CN1CC[C@H](O)C1)c1ccccc1 [Compound 20, N-((S)-2-((S)-3-hydroxypyrrolidin-1-yl)-1-phenylethyl)-N-methyl-2-((1-(methylsulfonyl)-1,2,3,4-tetrahydroquinolin-6-yl)oxy)acetamide] | 1.8 mg/kg | 2.12 nM | 30 mg/kg | 1740 nM |
